Reference: US20040014807A1, “Phenalenone derivatives, processes for preparation and use thereof” (priority 2002, published 2004)

Legend:
[1] = reaction with atmospheric oxygen (antioxidant action); format: physicochemical; conditions: in solution and in solid form
Source text: The compounds of the formula (I) can also be used as antioxidants. Antioxidants (oxidation inhibitors) are organic compounds which inhibit or prevent undesired changes in the substances to be protected caused by the effects of oxygen. Antioxidants are needed, for example, in plastics for protection against ageing, in fats for protection against rancidity, in oils against resinification, in aromatic substances against odor impairment, in foodstuffs, and in pharmaceuticals. The action of the antioxidants usually consists in acting as radical scavengers for the free radicals occurring in the oxidation. The antioxidative action of atrovenetin (compound of the formula (III)) has already been described by Y. Ishikawa et al. (J. Am. Oil Chem. Soc. 68, 666-668, 1991). Microbial antioxidants, however, are often too weak or not highly tolerable in their action. There is therefore a great need for novel, efficacious and tolerable antioxidants. […] This increased affinity of penilenone for oxygen, however, is decidedly advantageous for very oxidation-sensitive substances.

Streptomyces murinus = assay: agar diffusion test (antibiogram on solid nutrient plates with antibiotic diffusion); format: cell-based; conditions: agar plate containing Streptomyces murinus culture
Experimental: Moreover to be emphasized is an antimicrobial inhibitory action of the compounds of formula (I) according to the invention on bacteria, such as, for example, Staphylococcus aureus, Streptomyces murinus and against fungi, such as Aspergillus niger, which can cause stubborn, life-threatening infectious diseases. […] Thus, penilenone on an agar plate containing Streptomyces murinus culture in a solution of 1 mg per mL causes an inhibition halo of 11 mm and in a solution of 0.1 mg per mL an inhibition halo of 8 mm. The compounds of the formula (I) according to the invention are therefore likewise suitable for the treatment and/or prophylaxis of bacterial infections and/or fungal diseases (micosis or mycoses).

[2] = stability (physicochemical properties)
Source text: (§1) The melting point is not determinable because of decomposition. Stable in mildly acidic medium under reducing conditions. Under the influence of oxygen, penilenone turns green in neutral medium or in the presence of amines.

[3] = solubility (physicochemical properties)
Source text: as §1

| stability ([2]; mildly acidic medium under reducing conditions) | behaviour under the influence of oxygen ([2]; neutral medium or in the presence of amines) | solubility in water ([3]; water) | Structure (SMILES) | reaction with atmospheric oxygen [1] | inhibition halo (Streptomyces murinus; solution of 0.1 mg per mL) [mm] | inhibition halo (Streptomyces murinus; solution of 1 mg per mL) [mm] | solubility in organic solvents ([3]; medium polar and polar organic solvents) |
| --- | --- | --- | --- | --- | --- | --- | --- |
| – | – | – | Cc1cc(O)c2c3c(c(O)c4c(c13)OC(C)C4(C)C)C(O)=C(O)C2=O (centres unmarked) [atrovenetin, reference compound] | reacts only slowly with atmospheric oxygen | – | – | – |
| Stable | turns green | not very soluble in water | Cc1cc(O)c2c3c(c(O)cc(O)c13)C(O)=C(O)C2=O [penilenone] | combines with oxygen within seconds or in a few minutes | 8 | 11 | soluble in medium polar and polar organic solvents |
